Laboratory results taken from article PMC9866629, “Pharmacokinetics of Novel Furoxan/Coumarin Hybrids in Rats Using LC-MS/MS Method and Physiologically Based Pharmacokinetic Model” (Molecules, 2023).
Several values for one entry are separate records, joined by “and”; a condition that tells them apart may be missing. Equal values may be shown once. Read-outs that look alike come from different tables or passages of the source.

How the values were obtained:
[1] = Stability test of QC plasma samples (LC-MS/MS validation); assay type: physicochemical, rat; conditions: QC plasma samples 20–800 ng/mL, frozen at −80 °C for one week, n = 5
Description: The concentration of the testing compound was calculated by using the calibration curves with seven dots (10, 25, 50, 100, 250, 500, and 1000 ng/mL). The calibration line was constructed by plotting the peak area ratio (y-axis) of analytes to IS versus the nominal concentration (x-axis). The specificity and selectivity were investigated by comparing the chromatograms of blank plasma samples with the corresponding samples spiked with testing compounds. The signal-to-noise ratio (S/N) of the lower limit of quantification (LLOQ) was at least at 10. The linearity of the calibration graph was validated, and the calculated concentrations of the calibration standards should be all within ±15% of the nominal value, except for the LLOQ of ±20%. The linear correlation coefficient (R^2) should be 0.9900 or greater. The intra- and interday precisions and accuracy of the method were assessed by determining the quality control (QC) samples of […] (six samples at each concentration level) over 3 consecutive days. The coefficient of variation (CV) should not exceed 20% at LLOQ and should be within 15% for QCs. The relative error (RE) should be within 80%–120% at LLOQ and within 85%–115% for QCs. Recovery was assessed by comparing peak area of nominal QC plasma samples with peak area of the spike-after extraction samples (six samples at each concentration level). The matrix effect was evaluated by comparing peak area of the spike-after extraction samples with that of the analytes spiked in pure water (six samples at each concentration level). The recovery and matrix factor should be within 85%–115%. The variation in recovery and matrix effect should be less than 15%. The dilution integrity test was performed for samples exceeding the upper limit of quantification (ULOQ). QCs were prepared (5 samples at each concentration level) and frozen at […] for one week. LC-MS/MS analysis was performed to calculate the stability (RE). Samples of 25 μg/mL (n = 6) were diluted with blank matrix to 0.5 μg/mL, which was within the calibration line range, and the RE should be within 85–115%.

[2] = In vitro intrinsic clearance, disappearance via rat liver microsomes; assay type: in vitro ADME; conditions: for microsomal CLint: Sprague Dawley, rat, pooled liver microsomes, pH 7.4, rat hepatic microsomes; for microsomal CLint / CLint: Vmax divided by Km; for Km at 20 min: pooled rat liver microsomes, pH 7.4; for Km at 20 min / Vmax: rat hepatic microsomes 0.2 mg protein/mL, NADPH 1 mM, 20 min; for CLint: rat hepatic microsomes
Description: The incubation mixture with a final volume of 50 μL contained the testing compound, rat liver microsomes (0.2 mg protein/mL), phosphate buffer ([…], pH 7.4), and NADPH (1 mM). Before adding NADPH, the reaction mixture was preincubated in a shaking water bath at 37 °C for 5 min. 200 μL of methanol–acetonitrile mixture (1:1) containing IS was added to terminate the reaction after incubation for 20 min. Concentration of the testing compound was determined by LC-MS/MS after centrifugation at 14,000 rpm for 15 min. […] All experiments were performed in triplicate.
(§1) Vmax and Km were estimated via the nonlinear regression of the Michaelis–Menten model by using GraphPad Prism (Version 6.01, http://www.graphpad.com/). The PK parameters were determined from drug plasma concentration-time data by employing a noncompartmental approach using Phoenix WinNonlin (version 3.0).

[3] = PBPK modeling (Simcyp Rat); conditions: blood, intravenous, in rats, calculated on the basis of B/P and the plasma clearance rate, read-out: liver blood clearance
Excerpt: PBPK models were constructed with physical chemistry and in vitro PK parameters, such as molecular weight (MW), octanol–buffer partition coefficient (log Po:w), compound type, pKa, B/P, fu, and CLint, using Simcyp (Simcyp Rat Version 16, Sheffield, UK). Two physical chemistry parameters of log Po:w and pKa were predicted on the basis of the structure of the chemicals by using the ADMET Predictor (v.9.0, Lancaster, http://www.simulations-plus.com/, accessed on 9 September 2019). Other parameters, including B/P, fu, and CLint, were obtained through in vitro experiments as mentioned above. The time course of xenobiotic concentration in plasma was simulated, and the PBPK models were further optimized on the basis of the experimental in vivo PK parameters (AUC, Cmax, and time to reach Cmax (Tmax)). The prediction accuracy of the PBPK model was evaluated by introducing the deviation (fold error) of the predicted PK parameters and comparing them with the experimental ones. The equation of the fold error is shown below. A simulation with fold errors no greater than 2 is acceptable [36, 42]. (1) fold error=observed parameter/predicted parameter;if observed value>predicted value (2) fold error=predicted parameter/observed parameter;if predicted value>observed value

[4] = Free drug fraction (fu) in rat plasma by ultrafiltration; assay type: in vitro ADME
Description: The fu of furoxan/coumarin hybrids in plasma was measured through the ultrafiltration method by using Amicon Ultra-15 ultrafiltration centrifuge tube (0.5 mL, 3-kDa membrane, Millipore, Bedford, MA, USA). […] One batch was incubated in a shaking water bath at 37 °C for 30 min, and the other batch was incubated for 60 min. After incubation, a plasma sample was transferred into ultrafiltration tube and centrifuged at 10,000 rpm for 20 min. The free compound in the filtrated fraction was determined directly by LC-MS/MS. All experiments were performed in triplicate.

[5] = Blood-to-plasma concentration ratio (B/P) in rat blood; assay type: in vitro ADME; conditions: 37 °C, 1 μg/mL (CY-14S-4A83, CY-16S-4A43), 5 μg/mL (CY-16S-4A93)
Description: Two batches of blood samples were prepared in parallel. One batch of the blood samples was then incubated in a shaking water bath at 37 °C for 30 min, and the other batch was incubated for 60 min. After incubation, one 150 μL aliquot of blood samples was centrifuged at 1500 rpm for 5 min, and the concentrations of the testing compound in the resulting plasma portion after extraction were determined by LC-MS/MS. In parallel, another 50 uL aliquot of the blood incubation sample was transferred into an Eppendorf tube and lysed by three-cycle freeze/thaw method. After the cell-lysis and extraction, the concentration of testing compound in the whole blood sample was determined by LC-MS/MS. The B/P was determined directly by the ratio of drug concentration in the whole blood to the plasma concentration. All experiments were performed in triplicate.

[6] = Pharmacokinetic study after intravenous administration to rats; assay type: in vivo, rat; conditions: for clearance / AUC(0-inf) / Cmax / MRT / Tmax / Vd / half-life / AUC(0-t): rat, plasma; for AUC(0-t): read-out: AUC(0–24 h)
Description: Rats were randomly divided into three groups, namely A, B, and C, with six rats in each group. […] Blood samples (0.15–0.2 mL) were collected through the femoral artery into an Eppendorf tube moistened with heparinized 0.9% NaCl before intravenous injection (0 h) and at 0.083, 0.25, 0.5, 1, 2, 4, 8, 12, and 24 h after intravenous injection. The blood sample was immediately centrifuged at 3000 rpm for 10 min at a temperature of 4 °C, and the upper plasma sample was collected and stored at −80 °C until analysis.
The plasma samples were thawed at room temperature before determination. Further, 20 μL of plasma was pipetted into a 1.5 mL Eppendorf tube, and 80 μL of methanol–acetonitrile (1:1, v/v) solution containing 200 ng/mL IS was added to precipitate the proteins. The contents were mixed thoroughly via vortexing the plasma sample for 40 s. The supernatant was aspirated for LC-MS/MS analysis after centrifugation at 14,000 rpm for 15 min.
as §1

[7] = 1.67 mg/kg, experimental value compared with PBPK prediction, read-out: experimental CL
[8] = single dose 1.67 mg/kg, read-out: CL (converted)

Stability (RE) [1]	microsomal CLint [2]	Km at 20 min [2]	clearance [3]	clearance [6, 7]	AUC(0-inf) ([6]; single dose 1.67 mg/kg)	Cmax ([6]; single dose 1.67 mg/kg)	MRT ([6]; single dose 1.67 mg/kg)	Tmax ([6]; single dose 1.67 mg/kg)	Vd ([6]; single dose 1.67 mg/kg)	half-life ([6]; single dose 1.67 mg/kg)	AUC(0-t) ([6]; single dose 1.67 mg/kg)	clearance [6, 8]	Compound	Vmax [2]	also measured
88–94.4%	336 µL/min/mg	18 ± 2.3 µM	0.23 mL/min										Cc1c(Cc2ccc(F)cc2)c(=O)oc2cc(OCCOc3no[n+]([O-])c3S(=O)(=O)c3ccccc3)ccc12 [CY-14S-4A83]	6044.0 pmol/min/mg Protein and 6044.0 ± 290.8 pmol/min/mg Protein	CLint [2]: 336.033 µL/min/mg; fraction unbound at 30 min ([4]; rat, fresh rat plasma): 0.0298 ± 0.002; fraction unbound at 60 min ([4]; rat, fresh rat plasma): 0.0217 ± 0.0003; f u ([4]; value used in the PBPK modeling): 0.02; B/P ([5]; incubation time 30 min): 12.11 ± 0.094; B/P ([5]; incubation time 60 min): 12.34 ± 0.03; plasma concentration within 24 h (stays above LLOQ) ([6]; 0.5 mg/kg): > 10 ng/mL; clearance ([6]; 0.5 mg/kg, experimental value compared with PBPK prediction, read-out: experimental CL): 1.73 mL/min; AUC(0-inf) ([6]; single dose 0.5 mg/kg): 1340 ± 475 ng·h/mL; Cmax ([6]; single dose 0.5 mg/kg): 946 ± 452 ng/mL; MRT ([6]; single dose 0.5 mg/kg): 366 ± 90 min; Tmax ([6]; single dose 0.5 mg/kg): 12 ± 12 min; Vd ([6]; single dose 0.5 mg/kg): 0.56 ± 0.15 L/kg; half-life ([6]; single dose 0.5 mg/kg): 60 ± 12 min; AUC(0-t) ([6]; single dose 0.5 mg/kg): 1310 ± 462 ng·h/mL; clearance ([6]; single dose 0.5 mg/kg, read-out: CL (converted)): 6.91 mL/min/kg
86–99.5%	333 µL/min/mg	1.4 ± 0.3 µM	1.87 mL/min	10.9 mL/min	673 ± 182 ng·h/mL	1210 ± 482 ng/mL	270 ± 60 min	6 ± 6 min	2.03 ± 0.63 L/kg	30 ± 6 min	669 ± 182 ng·h/mL	43.7 mL/min/kg	Cc1c(Cc2ccc(C#N)cc2)c(=O)oc2cc(OCCOc3no[n+]([O-])c3S(=O)(=O)c3ccccc3)ccc12 [CY-16S-4A43]	481.2 pmol/min/mg Protein and 481.2 ± 30.0 pmol/min/mg Protein	time within which plasma concentration dropped to less than 10 ng/mL ([6]; 1.67 mg/kg): 2 to 4 h
86.5–94.7%	174 µL/min/mg	1.3 ± 0.2 µM	0.24 mL/min	2.08 mL/min	3850 ± 1770 ng·h/mL	9380 ± 4210 ng/mL	132 ± 42 min	6 min	0.68 ± 0.38 L/kg	54 ± 12 min	3850 ± 1770 ng·h/mL	8.34 mL/min/kg	Cc1c(Cc2ccc(C(F)(F)F)cc2)c(=O)oc2cc(OCCOc3no[n+]([O-])c3S(=O)(=O)c3ccccc3)ccc12 [CY-16S-4A93]	220.0 pmol/min/mg Protein	Vmax ([2]; listed as CY-14S-4A93): 220.0 ± 14.1 pmol/min/mg Protein; CLint ([2]; listed as CY-14S-4A93): 173.83 µL/min/mg; plasma concentration within 24 h (stays above LLOQ) ([6]; 1.67 mg/kg): > 10 ng/mL
